One block for each molecule: values may come before it.
How the values were obtained:
Format in all cases: physicochemical
[1] = Interfacial tension between electron donor solutions and nonaqueous phase TCE (pendant drop method)
Text: (§1) Based on the field results presented in Example 1, laboratory studies were preformed to confirm that the enhanced bioavailability of TCE observed in the field was due to co-solvent or surfactant behavior resulting from the use of high concentrations of sodium lactate. Two fundamental properties used to screen the co-solvent or surfactant properties of a solution are surface tension and interfacial tension. Surface tension measures the force per unit length along the interface between a liquid and air due to its tension. When a co-solvent or surfactant is present in an aqueous liquid at increasing concentrations, the surface tension of that liquid decreases. Interfacial tension is similar to surface tension except that it measures the force per unit length along the interface between two liquid phases arising from the surface free energy. The higher the interfacial tension between two liquids, the less likely one is to dissolve into the other, and the more difficult it is for one to be transported within the other. Thus, perhaps the most significant property of co-solvents and surfactants in the context of chlorinated solvent remediation is that they decrease the interfacial tension between the aqueous phase (groundwater) and the organic nonaqueous phase so that the solubility (or mobility for order-of-magnitude decreases) of the nonaqueous phase is enhanced.
The laboratory study performed to confirm the co-solvent properties of the high concentration electron donor solution measured the surface tension of electron donor solutions at various concentrations. Next, interfacial tensions between the same electron donor solutions and nonaqueous phase TCE were measured. Two types of electron donor solutions were used. The first was different concentrations of sodium lactate, the electron donor used in Example 1. The second was various mixtures of sodium lactate and ethyl lactate. Ethyl lactate was chosen because it is a lactate-based compound that is used in some industries as a solvent. Thus it was believed ethyl lactate might further enhance the co-solvent behavior observed, while still acting as a suitable electron donor for bioremediation. It is believed that mixtures of sodium lactate and ethyl lactate have never before been used for bioremediation. Surface and interfacial tension measurements were made using the pendant drop method (M. J. Rosen, ed., Structure/Performance Relationships in Surfactants, American Chemical Society, Washington D.C. 329 (1984); R. D. Bagnall & P. A. Arundel, The Profile Area of Pendant Drops, 82 J. Phys. Chem. 898 (1978)) coupled with real-time video imaging (M. D. Herd et al., Interfacial Tensions of Microbial Surfactants Determined by Real-Time Video Imaging of Pendant Drops, Proceedings paper number SPE/DOE 24206 513–519, SPE/DOE Eighth Symposium on Enhanced Oil Recovery, Tulsa, Okla. (1992)).
The data points in the figure represent the mean interfacial tension measurement based on at least eight independent measurements. The error bars show one standard deviation. It can be seen that as electron donor concentration increases, interfacial tension generally decreases. While sodium lactate had dramatic effects in the field (see FIG. 7), it appears that the other electron donor solutions tested might increase bioavailability to an even greater extent. […]

[2] = Surface tension of electron donor solutions (pendant drop method); details: FIG. 5; for Change in surface tension: 0% ethyl lactate
Text: as §1, with “Thus, perhaps the most significant property of co-solvents and surfactants in the context of chlorinated solvent remediation is that they decrease the interfacial tension between the aqueous phase (groundwater) and the organic nonaqueous phase so that the solubility (or mobility for order-of-magnitude decreases) of the nonaqueous phase is enhanced.” left out
The laboratory study performed to confirm the co-solvent properties of the high concentration electron donor solution measured the surface tension of electron donor solutions at various concentrations. Next, interfacial tensions between the same electron donor solutions and nonaqueous phase TCE were measured. […] Surface and interfacial tension measurements were made using the pendant drop method (M. J. Rosen, ed., Structure/Performance Relationships in Surfactants, American Chemical Society, Washington D.C. 329 (1984); R. D. Bagnall & P. A. Arundel, The Profile Area of Pendant Drops, 82 J. Phys. Chem. 898 (1978)) coupled with real-time video imaging (M. D. Herd et al., Interfacial Tensions of Microbial Surfactants Determined by Real-Time Video Imaging of Pendant Drops, Proceedings paper number SPE/DOE 24206 513–519, SPE/DOE Eighth Symposium on Enhanced Oil Recovery, Tulsa, Okla. (1992)).

[3] = Emulsion formation of electron donor in water; details: very little mixing, unpublished data
Text: Oleyl lactyllic acid may be just such an electron donor (confidential proprietary information). It is essentially a combination of vegetable oil and lactic acid that was developed in the food processing industry a few decades ago as an emulsifier. […] Although it has an appearance and viscosity of vegetable oil, its nature as an emulsifier causes it to react very differently with water than pure vegetable oil. When vegetable oil is used in the field as electron donor, an emulsifier such as lecithin must be added to inject it into groundwater (25). The mixture is then mixed to achieve an emulsion of a few tenths of a percent to a few percent oil. The droplet size of the emulsion may be a critical factor in its transportability (26). In order to achieve small, easily transported droplets in the emulsion, intensive mixing is required. […] This observation is consistent with its intended use in food processing. […] While this may be the most promising example on the surface, other potential electron donors will be evaluated under this proposal.

Effect on the solution's surface tension ([2]; 1% and 10% ethyl lactate added to sodium lactate solutions): pronounced effect
Molecule: CCOC(=O)C(C)O (stereo not drawn) [ethyl lactate]
Tension compared with 30% sodium lactate solution with no ethyl lactate ([1]; 10% ethyl lactate mixture with sodium lactate): lower surface tensions than the 30% sodium lactate solution
Dependence of interfacial tension on sodium lactate concentration ([1]; ethyl lactate / sodium lactate mixtures, FIG. 6): relatively insensitive to sodium lactate concentration

Molecule: CC(O)C(=O)[O-].[Na+] (stereo not drawn) [sodium lactate]
Decrease of interfacial tension between nonaqueous TCE and the electron donor solution ([1]; high concentrations of sodium lactate): ≤ 47%
Interfacial tension as percent of the value at 0.1% sodium lactate ([1]; sodium lactate 30%, 0% ethyl lactate, FIG. 6): 47%
Decrease of interfacial tension ([1]; sodium lactate increased from 0.1 to 3%, 0% ethyl lactate, FIG. 6): about 26%
Change in surface tension ([2]; sodium lactate 0.01 to 7%): almost no change
Change in surface tension ([2]; sodium lactate 30 and 60%): dramatic decrease

Emulsion formed in water [3]: forms a stable microemulsion
Molecule: oleyl lactyllic acid
